For the experiment, the target named is T1, soluble guanylate cyclase (sGC) (Homo sapiens, UniProt Q02108+Q02153).
T1 construct: endogenously expressing soluble guanylate cyclase (sGC); endogenous in cells; host or cells: HEK293
T1 sequence (Q02153 1-619): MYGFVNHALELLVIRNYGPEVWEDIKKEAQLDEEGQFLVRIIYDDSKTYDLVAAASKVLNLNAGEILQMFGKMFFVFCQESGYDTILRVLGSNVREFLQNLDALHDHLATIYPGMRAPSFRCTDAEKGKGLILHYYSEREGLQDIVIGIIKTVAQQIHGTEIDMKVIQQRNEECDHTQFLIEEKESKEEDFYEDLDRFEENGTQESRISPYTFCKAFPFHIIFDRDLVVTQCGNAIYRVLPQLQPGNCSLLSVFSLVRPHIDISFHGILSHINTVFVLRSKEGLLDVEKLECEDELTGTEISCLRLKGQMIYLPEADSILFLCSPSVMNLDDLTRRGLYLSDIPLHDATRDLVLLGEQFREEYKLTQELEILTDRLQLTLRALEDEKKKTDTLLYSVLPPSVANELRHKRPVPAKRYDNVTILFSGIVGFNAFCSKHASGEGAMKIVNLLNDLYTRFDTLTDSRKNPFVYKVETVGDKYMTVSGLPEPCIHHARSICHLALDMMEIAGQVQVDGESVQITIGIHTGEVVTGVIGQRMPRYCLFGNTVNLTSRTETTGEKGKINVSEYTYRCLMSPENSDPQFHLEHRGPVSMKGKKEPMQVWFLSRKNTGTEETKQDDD
T1 sequence (Q02108 1-690): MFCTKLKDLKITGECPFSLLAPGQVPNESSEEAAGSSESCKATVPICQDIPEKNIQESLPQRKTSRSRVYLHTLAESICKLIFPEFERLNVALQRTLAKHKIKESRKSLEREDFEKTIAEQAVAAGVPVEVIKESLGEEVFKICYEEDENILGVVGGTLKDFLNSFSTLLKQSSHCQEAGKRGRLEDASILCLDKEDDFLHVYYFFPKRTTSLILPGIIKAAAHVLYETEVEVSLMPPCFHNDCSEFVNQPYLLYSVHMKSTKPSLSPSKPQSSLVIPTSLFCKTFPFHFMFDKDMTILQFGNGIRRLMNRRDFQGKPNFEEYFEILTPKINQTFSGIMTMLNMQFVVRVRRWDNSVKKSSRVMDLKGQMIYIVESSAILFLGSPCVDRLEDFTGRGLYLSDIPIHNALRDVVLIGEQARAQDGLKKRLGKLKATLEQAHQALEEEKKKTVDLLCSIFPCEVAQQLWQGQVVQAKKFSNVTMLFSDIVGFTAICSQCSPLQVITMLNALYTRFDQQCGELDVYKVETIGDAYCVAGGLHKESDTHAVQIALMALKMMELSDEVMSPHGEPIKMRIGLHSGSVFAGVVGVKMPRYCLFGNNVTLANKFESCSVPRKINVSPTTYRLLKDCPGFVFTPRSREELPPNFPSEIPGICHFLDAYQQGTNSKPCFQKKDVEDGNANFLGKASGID
The experiment in a line: sGC-HEK-cGMP assay, LC/MS detection, updated conditions with DETA-NONOate (Example 2B). The settings on record: read-out: sGC_HEK_LCMS EC50/IC50 Abs (Norm) (nM) Binned. In kind it is cell-based. As for the experimental part:
Human embryonic kidney cells (HEK293), endogenously expressing soluble guanylate cyclase (sGC), were used to evaluate the activity of test compounds. Compounds stimulating the sGC enzyme should cause an increase in the intracellular concentration of cGMP. HEK 293 cells were seeded in Dulbecco's Modification of Eagle's Medium supplemented with fetal bovine serum (10% final) and penicillin (100 U/mL)/streptomycin (100 μg/mL) in a 50 μL volume at a density of 1.5×10^4 cells/well in a poly-D-lysine coated 384 well flat bottom plate. Cells were incubated overnight at 37° C. in a humidified chamber with 5% CO2. Medium was aspirated and cells were washed with 1× Hank's Buffered Saline Salt Solution (50 μL). Cells were then incubated for 15 minutes at 37° C. with 50 μL of a 0.5 mM 3-isobutyl-1-methylxanthine (IBMX) solution. Test article and Diethylenetriamine NONOate (DETA-NONOate) solutions (x μM concentration for test article solution and 10 μM concentration for DETA-NONOate solution; wherein x is one of the following concentrations);
were then added to the assay mixture and the resulting mixture incubated at 37° C. for 20 minutes. […]
cGMP concentrations were determined from each sample using the LCMS conditions below (Table 2B) and calculated standard curve. […]

The structures appear in SMILES notation. A value given as a limit tells only on which side of the number the result lay.

Consider `OCCOc1nc(-c2cc(-c3ccon3)n(Cc3ccccc3F)n2)ncc1F` [Compound I-1], for which the EC50 lay within 100 to 1000 nM. On to `CN(C)CCOc1nc(-c2cc(-c3ccon3)n(Cc3ccccc3F)n2)ncc1F` [Compound I-2], for which the EC50 was over 1000 nM.

For the origin of these results see patent publication US20170298055A1, “sGC STIMULATORS” (IRONWOOD PHARMACEUTICALS, INC., priority 2014, published 2017).
